# Source: ChEMBL document CHEMBL1201862, “PubChem BioAssay data set” (2004)
#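 Cells were grown in 96-well plates and exposed to each compound for 48 hours at five concentrations; endpoints were interpolated linearly between bracketing concentrations, or set to the highest concentration if not reached. GI50: concentration for 50% inhibition of growth.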 Activity calls are given as the source filed them. Cut-off read from the data, not from the text of the source: active = GI50 up to about 1.1 µM and inactive = higher.
# Key:
# Assay in all cases: NCI-60 cell line screen, 48 h
# [1] = tested on: MDA-MB-231
# [2] = tested on: HCC 2998
# [3] = tested on: MOLT-4
# [4] = tested on: NCI-H226
# [5] = tested on: Malme-3M
# [6] = tested on: LOX IMVI
# [7] = tested on: SN12C
# [8] = tested on: IGROV-1
# [9] = tested on: NCI/ADR-RES
# [10] = tested on: SR
# [11] = tested on: TK-10
# [12] = tested on: SNB-19
# [13] = tested on: SK-MEL-2
# [14] = tested on: Hs-578T
# [15] = tested on: 786-0
# [16] = tested on: K562
# [17] = tested on: BT-549
# [18] = tested on: T47D
# [19] = tested on: MDA-MB-435
# [20] = tested on: UACC-62
# [21] = tested on: M14
# [22] = tested on: HT-29
# [23] = tested on: HOP-62
# [24] = tested on: CCRF-CEM
# [25] = tested on: HCT-116
# [26] = tested on: OVCAR-5
# [27] = tested on: SW-620
# [28] = tested on: SK-OV-3
# [29] = tested on: ACHN
# [30] = tested on: RPMI-8226
# [31] = tested on: PC-3
# [32] = tested on: COLO 205
# [33] = tested on: HCT-15
# [34] = tested on: MCF7
# [35] = tested on: MDA-N
# [36] = tested on: KM12
# [37] = tested on: OVCAR-8
# [38] = tested on: HL-60
# [39] = tested on: UACC-257
# [40] = tested on: SK-MEL-28
# [41] = tested on: SF-268
# [42] = tested on: SF-539
# [43] = tested on: NCI-H23
# [44] = tested on: UO-31
# [45] = tested on: NCI-H522
# [46] = tested on: EKVX
# [47] = tested on: HOP-92
# [48] = tested on: RXF 393
# [49] = tested on: DU-145
# [50] = tested on: U-251
# [51] = tested on: CAKI-1
# [52] = tested on: OVCAR-3
# [53] = tested on: SK-MEL-5
# [54] = tested on: NCI-H460
# [55] = tested on: SF-295
# [56] = tested on: OVCAR-4
# [57] = tested on: A498
# [58] = tested on: A549
# [59] = tested on: SNB-75
compound,measurement,setting,value
Cc1ccc(/C=C/C(=O)c2c([O-])on[n+]2-c2ccccc2)cc1,GI50,[1],4.98 µM (inactive)
same,GI50,[2],2.01 µM (inactive)
same,GI50,[3],2.34 µM (inactive)
same,GI50,[4],3.79 µM (inactive)
same,GI50,[5],5.42 µM (inactive)
same,GI50,[6],1.88 µM (inactive)
same,GI50,[7],3.79 µM (inactive)
same,GI50,[8],2.73 µM (inactive)
same,GI50,[9],2.4 µM (inactive)
same,GI50,[10],2.9 µM (inactive)
same,GI50,[11],2.95 µM (inactive)
same,GI50,[12],3.98 µM (inactive)
same,GI50,[13],2.11 µM (inactive)
same,GI50,[14],2.47 µM (inactive)
same,GI50,[15],1.83 µM (inactive)
same,GI50,[16],3.68 µM (inactive)
same,GI50,[17],2.72 µM (inactive)
same,GI50,[18],2.84 µM (inactive)
same,GI50,[19],2.3 µM (inactive)
same,GI50,[20],1.72 µM (inactive)
same,GI50,[21],2.34 µM (inactive)
same,GI50,[22],1.9 µM (inactive)
same,GI50,[23],5.28 µM (inactive)
same,GI50,[24],1.36 µM (inactive)
same,GI50,[25],1.84 µM (inactive)
same,GI50,[26],4.17 µM (inactive)
same,GI50,[27],2.46 µM (inactive)
same,GI50,[28],8.09 µM (inactive)
same,GI50,[29],1.87 µM (inactive)
same,GI50,[30],2.57 µM (inactive)
same,GI50,[31],4.72 µM (inactive)
same,GI50,[32],2.69 µM (inactive)
same,GI50,[33],1.98 µM
same,GI50,[34],3.53 µM (inactive)
same,GI50,[35],2.92 µM (inactive)
same,GI50,[36],2.39 µM (inactive)
same,GI50,[37],1.85 µM (inactive)
same,GI50,[38],1.47 µM (inactive)
same,GI50,[39],3.64 µM (inactive)
same,GI50,[40],2.26 µM (inactive)
same,GI50,[41],4.35 µM (inactive)
same,GI50,[42],3.28 µM (inactive)
same,GI50,[43],4.61 µM (inactive)
same,GI50,[44],2.62 µM (inactive)
same,GI50,[45],2.61 µM (inactive)
same,GI50,[46],3.6 µM (inactive)
same,GI50,[47],4.52 µM (inactive)
same,GI50,[48],1.94 µM (inactive)
same,GI50,[49],2.74 µM (inactive)
same,GI50,[50],2.79 µM (inactive)
same,GI50,[51],1.98 µM (inactive)
same,GI50,[52],3.1 µM (inactive)
same,GI50,[53],3.71 µM (inactive)
same,GI50,[54],2.44 µM (inactive)
same,GI50,[55],7.74 µM (inactive)
same,GI50,[56],3.1 µM (inactive)
same,GI50,[57],5.86 µM (inactive)
same,GI50,[58],3.67 µM (inactive)
O=C1/C(=C/c2ccccc2)Oc2cc(O)ccc21,GI50,[1],> 100 µM (inactive)
same,GI50,[2],> 100 µM (inactive)
same,GI50,[3],> 100 µM (inactive)
same,GI50,[4],> 100 µM (inactive)
same,GI50,[7],> 100 µM (inactive)
same,GI50,[8],> 100 µM (inactive)
same,GI50,[9],> 100 µM (inactive)
same,GI50,[10],> 100 µM (inactive)
same,GI50,[11],> 100 µM (inactive)
same,GI50,[12],> 100 µM (inactive)
same,GI50,[14],> 100 µM (inactive)
same,GI50,[15],> 100 µM (inactive)
same,GI50,[16],> 100 µM (inactive)
same,GI50,[17],> 100 µM (inactive)
same,GI50,[59],> 100 µM (inactive)
same,GI50,[18],> 100 µM (inactive)
same,GI50,[19],> 100 µM (inactive)
same,GI50,[20],> 100 µM (inactive)
same,GI50,[21],> 100 µM (inactive)
same,GI50,[22],> 100 µM (inactive)
same,GI50,[23],> 100 µM (inactive)
same,GI50,[24],> 100 µM (inactive)
same,GI50,[25],> 100 µM (inactive)
same,GI50,[27],> 100 µM (inactive)
same,GI50,[28],> 100 µM (inactive)
same,GI50,[29],> 100 µM (inactive)
same,GI50,[30],> 100 µM (inactive)
same,GI50,[31],> 100 µM (inactive)
same,GI50,[32],> 100 µM (inactive)
same,GI50,[33],> 100 µM
same,GI50,[34],> 100 µM (inactive)
same,GI50,[35],> 100 µM (inactive)
same,GI50,[36],> 100 µM (inactive)
same,GI50,[37],> 100 µM (inactive)
same,GI50,[38],> 100 µM (inactive)
same,GI50,[39],> 100 µM (inactive)
same,GI50,[40],> 100 µM (inactive)
same,GI50,[41],> 100 µM (inactive)
same,GI50,[42],> 100 µM (inactive)
same,GI50,[43],> 100 µM (inactive)
same,GI50,[44],> 100 µM (inactive)
same,GI50,[45],70.3 µM (inactive)
same,GI50,[46],> 100 µM (inactive)
same,GI50,[48],> 100 µM (inactive)
same,GI50,[49],> 100 µM (inactive)
same,GI50,[50],> 100 µM (inactive)
same,GI50,[51],> 100 µM (inactive)
same,GI50,[52],> 100 µM (inactive)
same,GI50,[53],> 100 µM (inactive)
same,GI50,[54],> 100 µM (inactive)
same,GI50,[55],> 100 µM (inactive)
same,GI50,[56],> 100 µM (inactive)
same,GI50,[58],> 100 µM (inactive)
